One series deals with HepG2. The series is described as follows: cells. The settings on record: 72 hours, n = 3, mean. The format is cell-based, human. As to the method: (§1) Monolayer cultures of human carcinoma cells were harvested using trypsin-EDTA, and the cells counted and resuspended to 1×10^5/mL in RPMI-1640 or DMEM containing 10% FBS. Cells (0.1 mL/well) were added to each well of 96 well microtiter plates and incubated overnight at 37° C. in a humidified atmosphere of 5% CO2. […] All dilutions were performed in triplicate. The drug treated cells were incubated for another 72 hours at 37° C. in a humidified atmosphere of 5% CO2. 50 μL of cold TCA (50%, wt/vol) was added to each well and incubated the plates at 4° C. for 1 hour. The plates were washed with slow-running tap water for three times and the dried at room temperature. 50 μL of Sulforhodamine B solution (0.4%, wt/vol) was added to each well and the plates were left at room temperature for 1 hour. The plates were rinsed with acetic acid solution (1%, vol/vol) to remove the unbound dye and dried at room temperature. 200 μL of 10 mM Tris base solution was added to each well and the plates were shaken on a gyratory shaker for 15 minutes to solubilize the protein-bound dye. Well optical density at 510 nm was measured in a microplate reader, and the IC50 was calculated by GraphPad from three separated experiments with triplicate in each experiment and expressed as mean (Table 1).

The next series concerns HCT116. The series is described as follows: cells. The settings on record: 72 hours, n = 3, mean. It counts as cell-based, human. As to the method: as §1
For series [1], the system named is CT-26 syngenic colon cancer model. The series is described as follows: In vivo antitumor activity, subcutaneous CT-26 syngenic colon cancer model. Further details: species or system Balb/c mice. The conditions noted are these: QW, intravenous, three injections. The method, then:
The tumoricidal effect of peptide-drug conjugate N^α-succinamic acid-Ala-Ala-Asn-PABC-mitomycin [8] was evaluated on subcutaneous CT-26 syngenic colon cancer model in Balb/c mice. Each mouse was inoculated subcutaneously at the right flank region with CT-26 tumor cells (5×10^5) in 0.1 mL of PBS.

Another series concerns Balb/c mice. The series is described as follows: In vivo maximum tolerated dose (MTD) in Balb/c mice. Further details: mortality: dose or concentration left out as unconfirmed.
The nature of the next series: Human plasma stability. As to the method: 100 μL aliquots were removed at the time points of 0, 0.25, 0.5, 1, 2, 4, 6 hours and diluted with 400 μL cold acetonitrile containing tolbutamide (200 ng/mL) as internal standard. The samples were centrifuged at 14,000 rpm for 4 minutes. 100 μL of above supernatants were diluted with 300 μL of 0.1% formic acid HPLC water and 10 μL was taken for LC/MS/MS analysis (column: C-18; mobile phase: 0.1% formic acid in water/0.1% formic acid in acetonitrile; ion transition: Q1 ion (m/z)=840.5, Q2 ion (m/z)=462.2).

[2] abbreviates: 25, 50 and 100 mg/kg, once per week, three injections total for 24 days.

We go through 2 compounds from patent publication US9579317B2, “Peptide-drug conjugates” (JiaRui Biopharmaceuticals, Ltd., priority 2014, dated 2017).

`CO[C@@]12[C@H](COC(N)=O)C3=C(C(=O)C(C)=C(N)C3=O)N1C[C@@H]1N[C@@H]12` [mitomycin, reference compound]: the IC50 came out at 143 nM with HepG2 (Homo sapiens, HepG2) and 116 nM in the series with HCT116 (Homo sapiens, HCT-116). Besides, in series [1] (5 mg/kg (MTD dose)), the “tumor growth T/C” value stood at 50.4%. For the same compound, the mortality result in the series with Balb/c mice is given as “animal death was observed”.
`CO[C@@]12[C@H](COC(N)=O)C3=C(C(=O)C(C)=C(N)C3=O)N1C[C@H]1[C@@H]2N1C(=O)OCc1ccc(NC(=O)[C@H](CC(N)=O)NC(=O)[C@H](C)NC(=O)[C@H](C)NC(=O)CCC(=O)O)cc1` [compound 8, N^α-succinamic acid-Ala-Ala-Asn-PABC-mitomycin] came in with an IC50 in the series with HepG2 of 2480 nM. Also, the IC50 with HCT116 came to 6650 nM. Besides, in series [1] (50 mg/kg, p<0.01), the “tumor growth T/C versus untreated control” value is reported as 36.4%. Also, the “free drug mitomycin detected” value in “Human plasma stability” (human plasma incubation, 10 μM, 37° C.) is reported as “Less than 2%”. The same compound showed a half-life at 10 μM in “Human plasma stability” (human, plasma) greater than 15 h. In the series on Balb/c mice (setting [2]), the appearance entry is “no abnormal appearance” and the “body weight (loss)” value is less than 10%. The “increase of mice maximum tolerated dose (MTD) as compared with parent drug mitomycin” value in the series with Balb/c mice (Balb/c mice) is on record as “at least 20 fold”.

What is called IC50 is the midpoint of a concentration-inhibition curve. One may read the half-life as how long it takes for the measured level to halve.
